Experimental findings from patent US20190275012A9, “SUBSTITUTED THIAZOLO-PYRIDINE COMPOUNDS AS MALT1 INHIBITORS” (Lupin Limited, priority 2016, published 2019) are described below.

One experiment has as its system OCI-Ly-10 cells. Kind of experiment: Anticancer assay (14 days), cell viability by CCK-8. To be noted: Homo sapiens, OCI-Ly10, 336 h, 14 days treatment, fresh treatment every 5th day, CCK-8 viability, read-out: Ly-10 (14d) inhibition IC50. The experiment is classed as cell-based. Put shortly:
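OCI-Ly-10 cells in IMDM + 20% FBS exposed to compound for 13–15 days, with media and compound refreshed every 5th day. Viability by CCK-8 absorbance at 450 nm (650 nm background); % inhibition versus 0.1% DMSO medium control.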

For experiment [1], the system named is NF-kB transcriptional activity in HEK-293-NF-kB-Luc cell line overexpressing MALT1. Kind of experiment: NF-kB reporter assay (luciferase, MALT1 stably overexpressed). It is filed as cell-based. To be noted: Homo sapiens, 24 h, HEK-293-NF-kB-Luc cells stably overexpressing MALT1, 24 h treatment, Bright Glo luminescence; read-out: NF-kB inhibition IC50. Put shortly: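 HEK-293-NF-κB-Luc cells stably overexpressing MALT1 were seeded overnight, then exposed to test compounds for 24 h. Bright Glo added 10 min at ambient temperature and luminescence read; % inhibition calculated against 0.1% DMSO controls.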

For the next experiment, the target named is T1, full length MALT1 enzyme (Homo sapiens, UniProt Q9UDY8).
T1 construct: a fluorescence based assay with full length MALT1 enzyme
T1 sequence (Q9UDY8 1-824): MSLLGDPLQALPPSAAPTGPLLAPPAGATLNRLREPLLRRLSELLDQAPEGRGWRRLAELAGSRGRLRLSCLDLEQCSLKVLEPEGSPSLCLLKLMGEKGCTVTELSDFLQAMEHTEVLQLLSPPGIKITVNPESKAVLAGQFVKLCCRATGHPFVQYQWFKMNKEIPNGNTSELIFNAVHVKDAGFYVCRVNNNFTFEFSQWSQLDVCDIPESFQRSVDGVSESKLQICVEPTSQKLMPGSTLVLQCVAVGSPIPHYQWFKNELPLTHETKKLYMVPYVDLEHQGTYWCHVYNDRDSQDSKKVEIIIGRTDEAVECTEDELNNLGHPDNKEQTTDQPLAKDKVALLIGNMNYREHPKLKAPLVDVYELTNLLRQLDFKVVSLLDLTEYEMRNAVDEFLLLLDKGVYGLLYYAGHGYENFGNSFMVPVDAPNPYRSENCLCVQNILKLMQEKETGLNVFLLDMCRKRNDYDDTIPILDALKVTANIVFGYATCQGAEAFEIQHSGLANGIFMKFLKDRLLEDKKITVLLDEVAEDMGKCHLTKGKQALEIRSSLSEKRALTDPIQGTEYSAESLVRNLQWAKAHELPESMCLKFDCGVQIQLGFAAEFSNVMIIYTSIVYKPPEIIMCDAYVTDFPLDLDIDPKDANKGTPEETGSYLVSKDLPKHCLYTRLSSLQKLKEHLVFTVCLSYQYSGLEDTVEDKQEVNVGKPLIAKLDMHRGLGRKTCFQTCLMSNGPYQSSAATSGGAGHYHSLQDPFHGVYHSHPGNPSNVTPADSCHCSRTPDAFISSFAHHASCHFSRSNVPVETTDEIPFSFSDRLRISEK
Kind of experiment: MALT1 biochemical assay (fluorescence based, Ac-Leu-Arg-Ser-Arg-AMC cleavage). To be noted: full length MALT1 protein, 2 h pre-incubation at RT, tetrapeptide substrate Ac-Leu-Arg-Ser-Arg-AMC, read-out: Malt 1 inhibition IC50. Put shortly:
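Full-length MALT1 (100-300 ng/well) was pre-incubated with compound for 2 h at RT, then 100 μM Ac-LRSR-AMC was added for 4-12 h. Buffer was 50 mM MES, 150 mM NaCl, 0.1% CHAPS, 1 M ammonium citrate, 10 mM DTT, pH 7, with 0.5% DMSO. IC50 was derived from AMC fluorescence (ex 360/em 460 nm).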

As for `COC(C)c1c(NC(=O)Nc2ccc(-n3nccn3)c(Cl)c2)cnc2sc(C)nc12` (single isomer, unassigned) [Compound 158b, 1-(3-Chloro-4-(2H-1,2,3-triazol-2-yl)phenyl)-3-(7-(1-methoxyethyl)-2-methylthiazolo[5,4-b]pyridin-6-yl)urea], the half-maximal inhibitory concentration (IC50) lay in the range of 0.1 to 25 nM with OCI-Ly-10 cells, 1 to 100 nM in experiment [1] and 1 to 50 nM at full length MALT1 enzyme.

Consider `COc1ncc(Cl)cc1NC(=O)Nc1cnc2sc(C)nc2c1C1CC1` [Compound 192, 1-(5-Chloro-2-methoxypyridin-3-yl)-3-(7-cyclopropyl-2-methylthiazolo[5,4-b]pyridin-6-yl)urea], for which the figures for the IC50 (with OCI-Ly-10 cells; in experiment [1]; on full length MALT1 enzyme) were 501 to 1500 nM, 101 to 500 nM and 51 to 100 nM, respectively.

`CCC(c1c(NC(=O)Nc2cnc(-n3nccn3)c(C(F)(F)F)c2)cnc2sc(C)nc12)N(C)C` (single isomer, unassigned) [Compound 75b, 1-(6-(2H-1,2,3-Triazol-2-yl)-5-(trifluoromethyl)pyridin-3-yl)-3-(7-(1-(dimethylamino)propyl)-2-methylthiazolo[5,4-b]pyridin-6-yl)urea]: the IC50 in the experiment with OCI-Ly-10 cells lay within 26 to 100 nM; in experiment [1], 1 to 100 nM; at full length MALT1 enzyme, 51 to 100 nM.

Consider `COC(c1ccc(F)cc1)c1c(NC(=O)Nc2cnc(-n3nccn3)c(C(F)(F)F)c2)cnc2sc(C)nc12` (single isomer, unassigned) [Compound 85a, 1-(6-(2H-1,2,3-Triazol-2-yl)-5-(trifluoromethyl)pyridin-3-yl)-3-(7-((4-fluorophenyl)(methoxy)methyl)-2-methylthiazolo[5,4-b]pyridin-6-yl)urea], for which the IC50 with OCI-Ly-10 cells lay in the range of 101 to 250 nM; in experiment [1] it was 1 to 100 nM; at full length MALT1 enzyme, 1 to 50 nM.

As for `COC(c1c(NC(=O)Nc2ccc(-n3nccn3)c(Cl)c2)cnc2sc(C)nc12)C1CC1` (single isomer, unassigned) [Compound 144b, 1-(3-Chloro-4-(2H-1,2,3-triazol-2-yl)phenyl)-3-(7-(cyclopropyl(methoxy)methyl)-2-methylthiazolo[5,4-b]pyridin-6-yl)urea], the IC50 in the experiment on OCI-Ly-10 cells lay in the range of 0.1 to 25 nM; in experiment [1], 1 to 100 nM; on full length MALT1 enzyme, 1 to 50 nM.

Take `Cc1nc2c(C(C3CC3)N(C)C)c(NC(=O)Nc3cnc(-n4nccn4)c(C(F)(F)F)c3)cnc2s1` (single isomer, unassigned) [Compound 76b, 1-(6-(2H-1,2,3-Triazol-2-yl)-5-(trifluoromethyl)pyridin-3-yl)-3-(7-(cyclopropyl(dimethylamino)methyl)-2-methylthiazolo[5,4-b]pyridin-6-yl)urea]: the half-maximal inhibitory concentration (IC50) was in the range of 0.1 to 25 nM in the experiment on OCI-Ly-10 cells, 1 to 100 nM in experiment [1] and 1 to 50 nM at full length MALT1 enzyme.

With `CCOC(C)c1c(NC(=O)Nc2cnc(-n3nccn3)c(C(F)(F)F)c2)cnc2sc(C)nc12` (single isomer, unassigned) [Compound 165b, 1-(6-(2H-1,2,3-Triazol-2-yl)-5-(trifluoromethyl)pyridin-3-yl)-3-(7-(1-ethoxyethyl)-2-methylthiazolo[5,4-b]pyridin-6-yl)urea], the IC50 was in the range of 26 to 100 nM in the experiment with OCI-Ly-10 cells, 1 to 100 nM in experiment [1] and 1 to 50 nM at full length MALT1 enzyme.

Consider `Cc1nc2c(C3(CF)CC3)c(NC(=O)Nc3ccc(-n4nccn4)c(Cl)c3)cnc2s1` [Compound 107, 1-(3-Chloro-4-(2H-1,2,3-triazol-2-yl)phenyl)-3-(7-(1-(fluoromethyl)cyclopropyl)-2-methylthiazolo[5,4-b]pyridin-6-yl)urea], for which the IC50 in the experiment on OCI-Ly-10 cells lay in the range of 101 to 250 nM; in experiment [1] it was 1 to 100 nM; at full length MALT1 enzyme, 1 to 50 nM.

`Cc1nc2c(C3CC3)c(NC(=O)Nc3ccc(-n4nccn4)c(Cl)c3)cnc2s1` [Compound 168, 1-(3-Chloro-4-(2H-1,2,3-triazol-2-yl)phenyl)-3-(7-cyclopropyl-2-methylthiazolo[5,4-b]pyridin-6-yl)urea]: the concentration for half-maximal inhibition (IC50) in the experiment on OCI-Ly-10 cells fell in the range of 251 to 500 nM; in experiment [1], 501 to 1500 nM; on full length MALT1 enzyme, 1 to 50 nM.

With `Cc1nc2c(C3CC3)c(NC(=O)Nc3cnc(-n4nccn4)c(Cl)c3)cnc2s1` [Compound 9, 1-(5-Chloro-6-(2H-1,2,3-triazol-2-yl)pyridin-3-yl)-3-(7-cyclopropyl-2-methylthiazolo[5,4-b]pyridin-6-yl)urea], the concentration for half-maximal inhibition (IC50) in the experiment with OCI-Ly-10 cells was 26 to 100 nM; in experiment [1] it was 1 to 100 nM; on full length MALT1 enzyme, 1 to 50 nM.

As for `COC(c1c(NC(=O)Nc2cnc(-n3nccn3)c(C(F)(F)F)c2)cnc2sc(C)nc12)C(C)(C)C` (single isomer, unassigned) [Compound 57b, 1-(6-(2H-1,2,3-Triazol-2-yl)-5-(trifluoromethyl)pyridin-3-yl)-3-(7-(1-methoxy-2,2-dimethylpropyl)-2-methylthiazolo[5,4-b]pyridin-6-yl)urea], the figures for the IC50 (in the experiment with OCI-Ly-10 cells; in experiment [1]; on full length MALT1 enzyme) were 26 to 100 nM, 1 to 100 nM and 1 to 50 nM, respectively.

`COc1ncc(NC(=O)Nc2cnc3sc(C)nc3c2C2CC2)cc1Cl` [Compound 1, 1-(5-Chloro-6-methoxypyridin-3-yl)-3-(7-cyclopropyl-2-methylthiazolo [5,4-b]pyridin-6-yl)urea]: the figures for the IC50 (in the experiment on OCI-Ly-10 cells; in experiment [1]; on full length MALT1 enzyme) were 101 to 250 nM, 1 to 100 nM and 1 to 50 nM, respectively.

`COC(c1c(NC(=O)Nc2ccc(-n3nccn3)c(C(F)(F)F)c2)cnc2sc(C)nc12)C1CC1` (single isomer, unassigned) [Compound 153b, 1-(4-(2H-1,2,3-Triazol-2-yl)-3-(trifluoromethyl)phenyl)-3-(7-(cyclopropyl(methoxy)methyl)-2-methylthiazolo[5,4-b]pyridin-6-yl)urea]: the IC50 in the experiment with OCI-Ly-10 cells lay within 26 to 100 nM; in experiment [1], 1 to 100 nM; on full length MALT1 enzyme, 1 to 50 nM.

As for `CCC(OC)c1c(NC(=O)Nc2cnc(-n3nccn3)c(Cl)c2)cnc2sc(C)nc12` (single isomer, unassigned) [Compound 145b, 1-(5-Chloro-6-(2H-1,2,3-triazol-2-yl)pyridin-3-yl)-3-(7-(1-methoxypropyl)-2-methylthiazolo[5,4-b]pyridin-6-yl)urea], the IC50 lay within 0.1 to 25 nM with OCI-Ly-10 cells, 1 to 100 nM in experiment [1] and 1 to 50 nM at full length MALT1 enzyme.

As to `COc1ccc(NC(=O)Nc2cnc3sc(C)nc3c2C2CC2)cc1Cl` [Compound 2, 1-(3-Chloro-4-methoxyphenyl)-3-(7-cyclopropyl-2-methylthiazolo[5,4-b]pyridin-6-yl)urea], the IC50 in the experiment with OCI-Ly-10 cells lay within 251 to 500 nM; in experiment [1], 501 to 1500 nM; at full length MALT1 enzyme it was 1 to 50 nM.

With `CCc1c(NC(=O)Nc2cnc(OC)c(Cl)c2)cnc2sc(C)nc12` [Compound 26, 1-(5-Chloro-6-methoxypyridin-3-yl)-3-(7-ethyl-2-methylthiazolo[5,4-b]pyridin-6-yl)urea], the values for the 50% inhibitory concentration (IC50) (with OCI-Ly-10 cells; in experiment [1]; on full length MALT1 enzyme) were 101 to 250 nM, 101 to 500 nM and 1 to 50 nM, respectively.

Consider `COC(C)(C)c1c(NC(=O)Nc2cnc(-n3nccn3)c(C(F)(F)F)c2)cnc2sc(C)nc12` [Compound 96, 1-(6-(2H-1,2,3-Triazol-2-yl)-5-(trifluoromethyl)pyridin-3-yl)-3-(7-(2-methoxypropan-2-yl)-2-methylthiazolo[5,4-b]pyridin-6-yl)urea], for which the IC50 with OCI-Ly-10 cells fell in the range of 0.1 to 25 nM; in experiment [1], 1 to 100 nM; on full length MALT1 enzyme it was 1 to 50 nM.

In the case of `Cc1nc2c(N3CCOCC3)c(NC(=O)Nc3cnc(-n4nccn4)c(Cl)c3)cnc2s1` [Compound 28, 1-(5-Chloro-6-(2H-1,2,3-triazol-2-yl)pyridin-3-yl)-3-(2-methyl-7-morpholinothiazolo[5,4-b]pyridin-6-yl)urea], the concentration for half-maximal inhibition (IC50) was 501 to 1500 nM with OCI-Ly-10 cells, 101 to 500 nM in experiment [1] and 1 to 50 nM on full length MALT1 enzyme.
